Patent US20090312438A1, “Compositions and Methods for Attenuating the Formation of A2E in the Retinal Pigment Epithelium” (priority 2008, published 2009)

Columns and labels:
[1] = female, Japanese quail (Coturnix japonica), in vivo, 16 weeks
Description: Tissues were homogenized and extracted three times with tetrahydrofuran containing 0.1% butylated hydroxytoluene by sonication at 5° C. to 10° C. for 30 minutes each time. The combined organic extracts were evaporated to dryness under vacuum at room temperature. The dried residue was redissolved in one ml of HPLC mobile phase and centrifuged at approximately 2000 g for 10 minutes to remove the minor amounts of insoluble solid particles prior to analysis. The majority of carotenoids in bird retinas are esterified (32), so after the initial extraction, the dried carotenoid residue was redissolved in hexane and subjected to saponification in 1.8% (w/v) methanolic potassium hydroxide (KOH) for two hours at room temperature. After saponification, the samples were washed with water until the samples achieved neutral pH. The vials were centrifuged at approximately 2000 g to remove the minor amounts of insoluble solid particles. The solution was evaporated to dryness on a rotary evaporator under reduced pressure at room temperature and reconstituted in the appropriate HPLC solvents.
HPLC analysis was performed on a Thermo Separations (San Jose, Calif.) HPLC system with binary gradient pumps, a refrigerated autosampler, a UV6000 photodiode-array detector (PDA), and an MSQ single quadrupole mass spectrometer. […]

A2E formation in the RPE = test: Xanthophyll supplementation in Japanese quail: A2E in RPE/choroid by HPLC-MS; format: in vivo, Japanese quail (Coturnix japonica); settings: for Rise of A2E levels from baseline levels: 16-week supplementation, P=0.1, unsupplemented control rose more than six-fold; for A2E oxidation products in mass spectra versus control group: A2E extracted from RPE, FIG. 5; for A2E levels in the RPE, control group relative to supplemented groups: FIG. 4, 16 weeks, N=4, P<0.001; for Inhibition of A2E formation relative to birds fed a control diet low in carotenoids: high dose supplementation
Description: A2E and its isomers were extracted and isolated from RPE/choroid using a previously described method (8). RPE samples were homogenized in 1:1 CHCl3/MeOH (2 ml) and 0.01 M phosphate-buffered saline (PBS) (1 ml). The homogenizer was washed with 1:1 CHCl3/MeOH (2 ml), 0.01 M PBS (1 ml), and then CHCl3 (2 ml) and CH2Cl2 (2 ml) were added to remove any remaining material. All solutions were combined, and the organic layer was extracted from the aqueous layer. The combined organic extracts were evaporated to dryness under vacuum at room temperature. The residue was dissolved in MeOH for HPLC. The vials were centrifuged at approximately 2000 g to remove the minor amounts of insoluble solid particles prior to analysis.
HPLC analysis was performed on a Thermo Separations (San Jose, Calif.) HPLC system with binary gradient pumps, a refrigerated autosampler, a UV6000 photodiode-array detector (PDA), and an MSQ single quadrupole mass spectrometer. Peak identities were confirmed by PDA and mass spectra and by co-elution with authentic standards as necessary. Calibration was by external standardization curves with authentic standards. […] Typical reproducibility with external standardization in our laboratory is +5%.
A2E HPLC analysis: The dried A2E samples were redissolved in 100 μl of MeOH. A gradient of 84-100% acetonitrile (A) with 0.05% trifluoroacetic acid in H2O (B) over 35 minutes was used to separate A2E at a flow rate of 1.0 ml min^−1 on a reverse-phase C18 column (4.6×250 mm, Phenomenex, Atlanta, Ga.). The column was maintained at room temperature, and the HPLC PDA detector was operated at 440 nm.
MS analysis was performed using a Thermo Separations (San Jose, Calif.) MSQ single quadrupole mass spectrometer, equipped with an electron spray ionization (ESI) source and an atmospheric pressure chemical ionization (APCI) source. A2E and carotenoids were ionized in positive ion ESI and APCI modes, respectively. To avoid overloading of eluted solvent molecules in the mass spectrometer and to optimize ionization conditions, 50% of the eluate was directed to waste with the help of a diverter valve after the PDA detector. The delay time from PDA to MS was 0.13 minutes. […] Selected ion monitoring (SIM) was performed using dwell time of 200 ms for each channel. In SIM mode, the m/z channels 592±3, 608±1.5, 624±1.5, and 640±1.5 were used for A2E and its oxidative products. Typical detection conditions for A2E were: RF lens bias voltage 0.1V, cone voltage 80V and heater temperature 550° C. The ion source and tuning lens parameters were optimized automatically by infusing A2E samples via the injector. For carotenoids, the m/z channels 551±0.7 and 569±0.7 were used for lutein, and 569±0.8 for zeaxanthin. Typical detection conditions were: corona discharge current 5 μA, cone voltage 80V, and probe temperature 500° C.
Adult Japanese quail (Coturnix japonica) were procured from B&D farms (Harrah, Okla.), and all experiments were reviewed and approved by the University of Utah's Institutional Animal Care and Use Committee. The birds were kept under ambient room light on a 12-hour light-dark cycle, and they were divided into three groups of four birds: lutein supplemented, zeaxanthin supplemented, and unsupplemented. All birds were fed daily with a standard turkey diet (˜20 g/day) (Purina Mills, St. Louis, Mo.) that was low in carotenoids (1.10 ng/g). The supplemented birds were gavaged daily with 0.5 ml of a microbial extract rich in lutein or zeaxanthin for 16 weeks (0.2 mg of carotenoid per bird per day). Lutein was prepared from the freshwater alga Chlorella protothecoides CS 41 (Microalgae Supply Service, CSIRO, Hobart Australia) under conditions described earlier (36). Zeaxanthin was obtained from the non-pathogenic bacteria Flavobacterium multivorum ATCC 55238 grown on liquid growth medium as detailed earlier (37). […]

[2] = extensive use in humans as dietary supplements; cited from earlier work

## CC1=C[C@H](O)CC(C)(C)[C@H]1/C=C/C(C)=C/C=C/C(C)=C/C=C/C=C(C)/C=C/C=C(C)/C=C/C1=C(C)C[C@@H](O)CC1(C)C [Lutein, (3R, 3′R, 6′R)-lutein]
[1]
  Increase of total lutein and zeaxanthin levels (retina) relative to baseline: 2.8 fold
  Rise of total retinal carotenoid levels relative to baseline: 1.6 fold
A2E formation in the RPE
  Rise of A2E levels from baseline levels: barely any rise from baseline levels
  A2E oxidation products in mass spectra versus control group: control group had higher levels of oxidation products in comparison
  A2E levels in the RPE, control group relative to supplemented groups: significantly higher for the control group
  Inhibition of A2E formation relative to birds fed a control diet low in carotenoids: profound inhibition of A2E formation
[2]
  Toxicity in humans as dietary supplements: no toxicity has ever been reported

## CC1=C(/C=C/C(C)=C/C=C/C(C)=C/C=C/C=C(C)/C=C/C=C(C)/C=C/C2=C(C)C[C@@H](O)CC2(C)C)C(C)(C)C[C@H](O)C1 [Zeaxanthin, (3R, 3′R)-zeaxanthin]
A2E formation in the RPE
  Rise of A2E levels from baseline levels: barely any rise from baseline levels
  A2E oxidation products in mass spectra versus control group: control group had higher levels of oxidation products in comparison
  A2E levels in the RPE, control group relative to supplemented groups: significantly higher for the control group
  Inhibition of A2E formation relative to birds fed a control diet low in carotenoids: profound inhibition of A2E formation
[2]
  Toxicity in humans as dietary supplements: no toxicity has ever been reported
